In ChEMBL document CHEMBL1201862, “PubChem BioAssay data set” (2004):
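Assay format: 96-well plates, 48-hour exposure. Abbreviation: GI50, concentration required for 50% inhibition of growth.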 The source made the active and inactive calls. Rule as the data show it: active = GI50 up to about 1.1 µM and inactive = higher.

Legend:
Experiment in all cases: DTP human tumour cell line panel, 48 h
SNB-78 = test system: SNB-78
Hs-578T = test system: Hs-578T
CCRF-CEM = test system: CCRF-CEM
HOP-18 = test system: HOP-18
DLD-1 = test system: DLD-1
RPMI-8226 = test system: RPMI-8226
MDA-MB-231 = test system: MDA-MB-231
MDA-MB-435 = test system: MDA-MB-435
XF498 = test system: XF498
SK-OV-3 = test system: SK-OV-3
ACHN = test system: ACHN
OVCAR-5 = test system: OVCAR-5
SW-620 = test system: SW-620
HCT-116 = test system: HCT-116
SR = test system: SR
KM-20L2 = test system: KM-20L2
MDA-N = test system: MDA-N
NCI-H226 = test system: NCI-H226
M14 = test system: M14
DMS-273 = test system: DMS-273

| SMILES | GI50 (SNB-78) | GI50 (Hs-578T) | GI50 (CCRF-CEM) | GI50 (HOP-18) | GI50 (DLD-1) | GI50 (RPMI-8226) | GI50 (MDA-MB-231) | GI50 (MDA-MB-435) | GI50 (XF498) | GI50 (SK-OV-3) | GI50 (ACHN) | GI50 (OVCAR-5) | GI50 (SW-620) | GI50 (HCT-116) | GI50 (SR) | GI50 (KM-20L2) | GI50 (MDA-N) | GI50 (NCI-H226) | GI50 (M14) | GI50 (DMS-273) |
| --- | --- | --- | --- | --- | --- | --- | --- | --- | --- | --- | --- | --- | --- | --- | --- | --- | --- | --- | --- | --- |
| COC1C(O)CC(OC2CC(Oc3cc4cc5c(c(O)c4c(O)c3C)C(=O)[C@@H](OC3CC(OC4CC(OC6CC(C)(O)C(OC(C)=O)C(C)O6)C(O)C(C)O4)C(O)C(C)O3)[C@H]([C@H](OC)C(=O)[C@@H](O)[C@@H](C)O)C5)OC(C)C2OC(C)=O)OC1C (stereo not given in full) [CHROMOMYCIN] | 0.00337 µM (active) | 2.13e-05 µM (active) | < 0.01 µM (active) | 0.00445 µM (active) | 0.00849 µM (active) | < 0.01 µM (active) | 3e-05 µM (active) | 2.44e-05 µM (active) | 0.00315 µM (active) | 0.00673 µM (active) | 4.71e-05 µM (active) | < 0.01 µM (active) | < 0.01 µM (active) | 0.00333 µM (active) | < 0.01 µM (active) | 0.00397 µM (active) | 3.15e-05 µM (active) | < 0.01 µM (active) | – | – |
| CCCC[C@H]1[C@@H](OCOc2ccccc2)COC(=O)N1[C@H](C)c1ccccc1 | – | 20.5 µM (inactive) | 16.8 µM (inactive) | – | – | 6.76 µM (inactive) | 13.3 µM (inactive) | 13.3 µM (inactive) | – | 22.4 µM (inactive) | 18.2 µM (inactive) | 17.3 µM (inactive) | 32.1 µM (inactive) | 7.62 µM (inactive) | 8.49 µM (inactive) | – | 11.9 µM (inactive) | > 100 µM (inactive) | 12.6 µM (inactive) | – |
| CN(C)CCNC(=O)c1cccc2c1C(=O)c1ccccc1C2=O | 24.9 µM (inactive) | – | 23.8 µM (inactive) | > 100 µM (inactive) | 25.5 µM (inactive) | 50.9 µM (inactive) | – | – | > 100 µM (inactive) | 58.9 µM (inactive) | – | 61.5 µM (inactive) | 28.9 µM (inactive) | 25.1 µM (inactive) | – | 28 µM (inactive) | – | > 94 µM (inactive) | – | 23.7 µM (inactive) |
| CC1=C[C@]2(CC(C)C3C(CC4(C)C5CCC6C(C)(C)C(=O)CC[C@@]67C[C@@]57CC[C@]34C)O2)OC1=O (stereo not given in full) | 23.2 µM (inactive) | – | > 100 µM (inactive) | 6.43 µM (inactive) | 11 µM (inactive) | 9.2 µM (inactive) | – | – | 13.9 µM (inactive) | – | 24.6 µM (inactive) | 2.21 µM (inactive) | 12.6 µM (inactive) | 3.33 µM (inactive) | 3.82 µM (inactive) | – | – | 1.88 µM (inactive) | 47.3 µM (inactive) | 3.95 µM (inactive) |
| CCOC(C)OC1CC(n2cc(C)c(=O)[nH]c2=O)OC1CO (stereo not given) | > 100 µM (inactive) | – | 82.6 µM (inactive) | > 100 µM (inactive) | > 100 µM (inactive) | > 100 µM (inactive) | – | – | > 100 µM (inactive) | > 100 µM (inactive) | > 100 µM (inactive) | > 100 µM (inactive) | > 100 µM (inactive) | > 100 µM (inactive) | > 100 µM (inactive) | > 100 µM (inactive) | – | > 100 µM (inactive) | > 100 µM (inactive) | > 100 µM (inactive) |
| CCN(CC)CCOC(=O)c1ccc(N)cc1.CCOC(=O)Nc1ccc(S(=O)(=O)OC)cc1.CCOC(=O)Nc1ccc(S(=O)(=O)OC)cc1.Nc1ccc(C(=O)O)c(O)c1 | > 100 µM (inactive) | – | > 100 µM (inactive) | > 100 µM (inactive) | > 100 µM (inactive) | – | – | – | – | > 100 µM (inactive) | > 100 µM (inactive) | > 100 µM (inactive) | > 100 µM (inactive) | > 100 µM (inactive) | – | > 100 µM (inactive) | – | > 100 µM (inactive) | > 100 µM (inactive) | – |
| COc1cccc(N2C(=O)C3c4[nH]c5ccc(C)cc5c4C4CCC(C(C)(C)C)CC4C3C2=O)c1 (stereo not given) | – | 3.19 µM (inactive) | 2.77 µM (inactive) | – | – | 4.06 µM (inactive) | 5.48 µM (inactive) | > 10 µM (inactive) | – | > 10 µM (inactive) | > 10 µM (inactive) | 3.3 µM (inactive) | 3.88 µM (inactive) | 2.17 µM (inactive) | 2 µM (inactive) | – | > 10 µM (inactive) | 3.01 µM (inactive) | 8 µM (inactive) | – |
| Nc1ncc2c(n1)-c1ccccc1OC2 | > 100 µM (inactive) | – | > 100 µM (inactive) | > 100 µM (inactive) | > 100 µM (inactive) | > 100 µM (inactive) | – | – | > 100 µM (inactive) | > 100 µM (inactive) | – | > 100 µM (inactive) | > 100 µM (inactive) | > 100 µM (inactive) | – | > 100 µM (inactive) | – | 36.6 µM (inactive) | – | > 80.5 µM (inactive) |
| CC1=CC2c3cccc4[nH]cc(c34)CC2N(C)C1 (stereo not given) | > 100 µM (inactive) | – | > 91.6 µM (inactive) | 23.4 µM (inactive) | > 37.8 µM (inactive) | > 100 µM (inactive) | – | – | 9.75 µM (inactive) | > 100 µM (inactive) | – | > 100 µM (inactive) | > 100 µM (inactive) | > 100 µM (inactive) | – | > 76.2 µM (inactive) | – | > 100 µM (inactive) | – | > 100 µM (inactive) |
| COc1cc([C@@H]2c3cc4c(c(O[C@@H]5O[C@H]6CO[C@@H](C)O[C@H]6[C@H](O)[C@@H]5O)c3C[C@H]3COC(=O)[C@@H]32)OCO4)cc(OC)c1O | 6.03 µM (inactive) | – | 11.9 µM (inactive) | 11.7 µM (inactive) | 27.7 µM (inactive) | 47.5 µM (inactive) | – | – | 12.6 µM (inactive) | 19.6 µM (inactive) | – | 97.1 µM (inactive) | 8.3 µM (inactive) | 6.78 µM (inactive) | – | 34.9 µM (inactive) | – | 3.75 µM (inactive) | – | 4.63 µM (inactive) |
| CCOC(=O)C(O)(NC(=O)c1ccc(F)cc1)C(F)(F)F (stereo not given) | – | > 100 µM (inactive) | > 100 µM (inactive) | – | – | > 100 µM (inactive) | 59.8 µM (inactive) | > 100 µM (inactive) | – | > 100 µM (inactive) | > 100 µM (inactive) | > 100 µM (inactive) | > 100 µM (inactive) | > 100 µM (inactive) | > 100 µM (inactive) | – | > 100 µM (inactive) | > 100 µM (inactive) | > 100 µM (inactive) | – |
| C[n+]1c2ccccc2c(C(=O)NC(CCCNC(=N)N)C(=O)O)c2ccccc21 (stereo not given) | – | > 100 µM (inactive) | – | – | – | > 100 µM (inactive) | > 100 µM (inactive) | > 100 µM (inactive) | – | > 100 µM (inactive) | > 100 µM (inactive) | > 100 µM (inactive) | > 100 µM (inactive) | > 100 µM (inactive) | 1.31 µM (inactive) | – | > 100 µM (inactive) | – | > 100 µM (inactive) | – |
| Cc1c2c(cc3c1[nH]c1ccccc13)C(c1ccc(F)cc1)=NCC2 | 1.81 µM (inactive) | – | 1.14 µM (inactive) | 2.88 µM (inactive) | 0.851 µM (active) | 0.935 µM (active) | – | – | 1.67 µM (inactive) | 1.37 µM (inactive) | – | 1.74 µM (inactive) | 0.665 µM (active) | 0.752 µM (active) | – | 1.11 µM (active) | – | 1.43 µM (inactive) | – | 0.63 µM (active) |
| O=S(=O)(O)c1cc2ccc1/C=C\c1ccc(cc1S(=O)(=O)O)/N=N\c1ccc(c(S(=O)(=O)O)c1)/C=C\c1ccc(cc1S(=O)(=O)O)/N=N\2 | > 100 µM (inactive) | – | > 100 µM (inactive) | > 100 µM (inactive) | > 100 µM (inactive) | > 100 µM (inactive) | – | – | > 88.3 µM (inactive) | > 100 µM (inactive) | – | > 100 µM (inactive) | > 100 µM (inactive) | > 100 µM (inactive) | – | > 100 µM (inactive) | – | > 100 µM (inactive) | – | > 100 µM (inactive) |
| N#CCCC1(CCC#N)CCCCCCC(CCC#N)(CCC#N)C(O)C1O (stereo not given) | – | – | – | – | – | – | – | > 100 µM (inactive) | – | > 100 µM (inactive) | > 100 µM (inactive) | > 100 µM (inactive) | > 100 µM (inactive) | > 100 µM (inactive) | 65.3 µM (inactive) | – | > 100 µM (inactive) | 53.8 µM (inactive) | > 100 µM (inactive) | – |
| Cc1cccc(N2C(=O)C3c4[nH]c5ccc(C)cc5c4C4CCC(C(C)(C)C)CC4C3C2=O)c1 (stereo not given) | – | – | 21.4 µM (inactive) | – | – | 15.5 µM (inactive) | 18.8 µM (inactive) | 40.9 µM (inactive) | – | – | – | 32.7 µM (inactive) | 21 µM (inactive) | – | – | – | – | 17.1 µM (inactive) | 20.2 µM (inactive) | – |
| CCOC(=O)CCc1c(C)c2c(OC(C)=O)cc(OC(C)=O)cc2oc1=O | 47.6 µM (inactive) | – | – | > 100 µM (inactive) | 46 µM (inactive) | – | – | – | – | – | 28.1 µM (inactive) | > 100 µM (inactive) | 45.7 µM (inactive) | 62.1 µM (inactive) | – | > 100 µM (inactive) | – | > 10 µM (inactive) | 43 µM (inactive) | 35 µM (inactive) |
| Cc1[nH]c(=O)[nH]c(=O)c1C(=O)N(CCO)Cc1ccccc1 | – | 14.2 µM (inactive) | > 100 µM (inactive) | – | – | > 100 µM (inactive) | > 100 µM (inactive) | > 100 µM (inactive) | – | > 100 µM (inactive) | > 100 µM (inactive) | > 100 µM (inactive) | > 100 µM (inactive) | > 100 µM (inactive) | > 100 µM (inactive) | – | > 100 µM (inactive) | 17 µM (inactive) | > 100 µM (inactive) | – |
